# Values joined by “and” are separate entries in the source; they are usually repeats but may differ in a detail not shown here. Equal entries are not always repeated. Where two headings read alike, the source gives them in different places.
# Experiments:
# Assay in all cases: KiNativ assay
# Format in all cases: binding
# Conditions in all cases: H929 live cell
# PHKg2 = PHKg2 (Homo sapiens (Human), UniProt P15735)
# Description: (§1) Biochemical IC50s of the compounds of the present disclosure against various kinases were measured in a KiNativ assay. Compounds were screened in duplicate at 10 μM in H929 live cell. IC50 was measured via Mass spectroscopy (MS).
# EphB2 = EphB2 (Homo sapiens (Human), UniProt P29323)
# Sequence of EphB2 (P29323 19-1055): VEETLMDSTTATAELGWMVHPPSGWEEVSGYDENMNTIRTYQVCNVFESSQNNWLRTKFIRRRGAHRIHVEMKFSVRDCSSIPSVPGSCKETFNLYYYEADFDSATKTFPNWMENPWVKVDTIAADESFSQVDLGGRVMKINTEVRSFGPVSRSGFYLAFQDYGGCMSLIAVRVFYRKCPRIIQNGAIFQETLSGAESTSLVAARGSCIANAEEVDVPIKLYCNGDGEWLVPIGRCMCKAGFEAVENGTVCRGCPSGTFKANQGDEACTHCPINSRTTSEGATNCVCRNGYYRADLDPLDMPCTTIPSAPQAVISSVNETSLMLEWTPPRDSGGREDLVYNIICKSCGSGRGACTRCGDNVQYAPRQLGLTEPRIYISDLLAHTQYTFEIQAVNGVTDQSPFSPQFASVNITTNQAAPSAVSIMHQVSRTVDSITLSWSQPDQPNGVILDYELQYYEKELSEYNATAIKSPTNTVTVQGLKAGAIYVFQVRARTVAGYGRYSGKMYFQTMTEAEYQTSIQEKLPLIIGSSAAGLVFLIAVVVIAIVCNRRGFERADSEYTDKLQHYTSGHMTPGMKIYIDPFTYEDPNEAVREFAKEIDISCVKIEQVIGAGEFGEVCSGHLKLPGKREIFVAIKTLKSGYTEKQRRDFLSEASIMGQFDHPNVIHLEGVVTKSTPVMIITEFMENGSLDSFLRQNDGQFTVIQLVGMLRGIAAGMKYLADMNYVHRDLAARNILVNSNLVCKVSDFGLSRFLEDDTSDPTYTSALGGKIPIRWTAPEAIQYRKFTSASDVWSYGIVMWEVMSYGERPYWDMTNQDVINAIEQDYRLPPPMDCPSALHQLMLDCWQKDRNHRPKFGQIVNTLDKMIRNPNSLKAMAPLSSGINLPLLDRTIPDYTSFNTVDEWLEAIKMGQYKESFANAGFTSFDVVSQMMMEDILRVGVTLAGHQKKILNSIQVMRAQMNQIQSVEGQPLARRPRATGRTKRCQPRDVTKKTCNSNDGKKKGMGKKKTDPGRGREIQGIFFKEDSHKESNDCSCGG
# Description: as §1
# LOK = LOK (Homo sapiens (Human), UniProt O94804)
# Description: as §1
# NEK1 = NEK1 (Homo sapiens (Human), UniProt Q96PY6)
# Description: as §1
# CaMK1d = CaMK1d (Homo sapiens (Human), UniProt Q8IU85)
# Sequence of CaMK1d (Q8IU85 whole entry): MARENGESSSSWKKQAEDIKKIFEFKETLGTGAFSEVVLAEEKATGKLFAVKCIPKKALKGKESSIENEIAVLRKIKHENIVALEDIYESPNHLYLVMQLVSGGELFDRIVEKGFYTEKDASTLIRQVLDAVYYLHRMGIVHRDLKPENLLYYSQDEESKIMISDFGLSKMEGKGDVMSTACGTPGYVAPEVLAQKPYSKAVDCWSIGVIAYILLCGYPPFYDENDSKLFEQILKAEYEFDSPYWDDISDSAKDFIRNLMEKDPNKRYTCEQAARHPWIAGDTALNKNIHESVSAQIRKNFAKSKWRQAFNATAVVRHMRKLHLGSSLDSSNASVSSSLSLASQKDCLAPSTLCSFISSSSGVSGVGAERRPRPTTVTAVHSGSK
# Description: as §1
# NuaK1 = NuaK1 (Homo sapiens (Human), UniProt O60285)
# Description: as §1
# JAK1 domain2 = JAK1 domain2 (Homo sapiens (Human), UniProt P23458)
# Sequence of JAK1 domain2 (P23458 whole entry, the tested form may be a part): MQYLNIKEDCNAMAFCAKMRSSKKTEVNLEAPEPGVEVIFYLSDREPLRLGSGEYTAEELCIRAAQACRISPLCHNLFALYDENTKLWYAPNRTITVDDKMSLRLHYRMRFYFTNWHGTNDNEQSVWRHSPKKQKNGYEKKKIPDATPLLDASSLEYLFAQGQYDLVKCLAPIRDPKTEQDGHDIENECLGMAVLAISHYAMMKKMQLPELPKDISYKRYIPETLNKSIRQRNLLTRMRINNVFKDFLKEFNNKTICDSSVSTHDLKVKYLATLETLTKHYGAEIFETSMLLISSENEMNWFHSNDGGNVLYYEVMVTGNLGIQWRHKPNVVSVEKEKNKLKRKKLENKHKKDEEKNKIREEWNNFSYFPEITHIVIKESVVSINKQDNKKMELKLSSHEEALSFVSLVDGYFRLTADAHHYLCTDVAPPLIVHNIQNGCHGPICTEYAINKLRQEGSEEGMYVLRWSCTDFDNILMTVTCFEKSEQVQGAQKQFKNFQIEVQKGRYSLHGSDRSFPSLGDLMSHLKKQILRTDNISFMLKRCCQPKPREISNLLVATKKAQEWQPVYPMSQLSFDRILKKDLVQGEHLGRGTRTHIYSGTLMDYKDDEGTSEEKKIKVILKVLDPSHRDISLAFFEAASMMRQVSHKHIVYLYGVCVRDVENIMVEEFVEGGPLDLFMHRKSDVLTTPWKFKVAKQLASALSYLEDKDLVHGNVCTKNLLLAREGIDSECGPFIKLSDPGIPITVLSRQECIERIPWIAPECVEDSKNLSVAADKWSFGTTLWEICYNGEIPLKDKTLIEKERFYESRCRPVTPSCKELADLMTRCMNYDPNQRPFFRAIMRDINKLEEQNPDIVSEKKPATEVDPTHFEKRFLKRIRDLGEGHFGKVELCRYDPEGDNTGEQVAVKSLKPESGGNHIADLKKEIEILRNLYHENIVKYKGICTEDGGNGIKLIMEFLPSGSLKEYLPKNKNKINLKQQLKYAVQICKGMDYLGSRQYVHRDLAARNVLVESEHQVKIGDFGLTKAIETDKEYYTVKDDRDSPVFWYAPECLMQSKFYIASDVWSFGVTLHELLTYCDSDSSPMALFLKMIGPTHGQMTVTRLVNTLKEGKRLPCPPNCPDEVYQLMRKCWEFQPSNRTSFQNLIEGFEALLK
# Description: as §1
# JAK1 domain1 = JAK1 domain1 (Homo sapiens (Human), UniProt P23458)
# Sequence of JAK1 domain1 (P23458 whole entry, the tested form may be a part): as above
# Description: as §1
# GSK3B = GSK3B (Homo sapiens (Human), UniProt P49841)
# Description: as §1
# IRE1 = IRE1 (Homo sapiens (Human), UniProt O75460)
# Description: as §1
# IKKe, TBK1 = test system: IKKe, TBK1
# Description: as §1
# NEK4 = NEK4 (Homo sapiens (Human), UniProt P51957)
# Description: as §1
# NDR1 = NDR1 (Homo sapiens (Human), UniProt Q15208)
# Description: as §1
# NDR2 = NDR2 (Homo sapiens (Human), UniProt Q9Y2H1)
# Sequence of NDR2 (Q9Y2H1 whole entry): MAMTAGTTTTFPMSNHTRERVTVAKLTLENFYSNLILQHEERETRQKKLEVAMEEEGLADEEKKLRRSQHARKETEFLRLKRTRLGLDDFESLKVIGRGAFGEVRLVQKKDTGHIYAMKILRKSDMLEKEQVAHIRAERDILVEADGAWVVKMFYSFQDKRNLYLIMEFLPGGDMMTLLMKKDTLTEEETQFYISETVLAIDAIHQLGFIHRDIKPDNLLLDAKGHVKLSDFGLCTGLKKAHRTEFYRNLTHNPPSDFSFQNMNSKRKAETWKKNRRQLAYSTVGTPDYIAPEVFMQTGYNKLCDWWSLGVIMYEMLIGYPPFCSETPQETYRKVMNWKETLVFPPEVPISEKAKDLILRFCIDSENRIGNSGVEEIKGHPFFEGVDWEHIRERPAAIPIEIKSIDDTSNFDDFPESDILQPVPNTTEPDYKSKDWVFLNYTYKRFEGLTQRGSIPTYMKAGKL
# Description: as §1
# CDK2 = CDK2 (Homo sapiens (Human), UniProt P24941)
# Description: as §1
# MAP3K5 = MAP3K5 (Homo sapiens (Human), UniProt Q99683)
# Description: as §1
# LKB1 = LKB1 (Homo sapiens (Human), UniProt Q15831)
# Sequence of LKB1 (Q15831 whole entry): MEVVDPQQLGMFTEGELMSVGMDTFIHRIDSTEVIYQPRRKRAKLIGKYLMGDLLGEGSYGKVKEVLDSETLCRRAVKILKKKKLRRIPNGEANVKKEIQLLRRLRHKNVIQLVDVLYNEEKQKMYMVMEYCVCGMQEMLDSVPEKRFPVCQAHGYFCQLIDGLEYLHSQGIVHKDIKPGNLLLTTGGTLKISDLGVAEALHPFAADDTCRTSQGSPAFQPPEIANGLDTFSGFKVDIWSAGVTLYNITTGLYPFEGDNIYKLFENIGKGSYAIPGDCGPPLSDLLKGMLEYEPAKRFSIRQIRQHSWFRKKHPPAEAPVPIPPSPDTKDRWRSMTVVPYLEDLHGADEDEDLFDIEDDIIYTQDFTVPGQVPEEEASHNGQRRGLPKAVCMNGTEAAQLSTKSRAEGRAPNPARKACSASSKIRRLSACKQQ
# Description: as §1
# [1] = test system: ZC1/HGK, ZC2/TNIK, ZC3/MINK
# Description: as §1
# IKKb = IKKb (Homo sapiens (Human), UniProt O14920)
# Description: as §1
# ULK1 = ULK1 (Homo sapiens (Human), UniProt O75385)
# Description: as §1
# PIP4K2A = PIP4K2A (Homo sapiens (Human), UniProt P48426)
# Description: as §1
# MST4, YSK1 = test system: MST4, YSK1
# Description: as §1
# CSK = CSK (Homo sapiens (Human), UniProt P41240)
# Description: as §1
# TAO1, TAO3 = test system: TAO1, TAO3
# Description: as §1
# PIK3C3 = PIK3C3 (Homo sapiens (Human), UniProt Q8NEB9)
# Description: as §1
# NEK3 = NEK3 (Homo sapiens (Human), UniProt P51956)
# Description: as §1
# SNRK = SNRK (Homo sapiens (Human), UniProt Q9NRH2)
# Description: as §1
# RSK2 domain2 = RSK2 domain2 (Homo sapiens (Human), UniProt P51812)
# Description: as §1
# RSK2 domain1 = RSK2 domain1 (Homo sapiens (Human), UniProt P51812)
# Description: as §1
# AurA, AurB, AurC = test system: AurA, AurB, AurC
# Description: as §1
# MAP3K2, MAP3K3 = test system: MAP3K2, MAP3K3
# Description: as §1
# CK1g2 = CK1g2 (Homo sapiens (Human), UniProt P78368)
# Sequence of CK1g2 (P78368 whole entry): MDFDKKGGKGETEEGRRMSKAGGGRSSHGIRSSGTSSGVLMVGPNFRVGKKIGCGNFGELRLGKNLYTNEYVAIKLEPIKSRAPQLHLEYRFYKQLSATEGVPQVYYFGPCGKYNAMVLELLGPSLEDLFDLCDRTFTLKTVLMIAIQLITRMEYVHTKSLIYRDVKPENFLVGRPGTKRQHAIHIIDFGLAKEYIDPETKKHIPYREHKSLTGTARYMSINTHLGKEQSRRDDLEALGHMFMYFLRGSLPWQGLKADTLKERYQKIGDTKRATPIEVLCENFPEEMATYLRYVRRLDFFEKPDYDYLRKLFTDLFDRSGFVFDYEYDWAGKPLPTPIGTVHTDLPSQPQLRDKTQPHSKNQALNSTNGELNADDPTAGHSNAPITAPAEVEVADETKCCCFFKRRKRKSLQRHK
# Description: as §1
# PKD3 = PKD3 (Homo sapiens (Human), UniProt O94806)
# Sequence of PKD3 (O94806 whole entry): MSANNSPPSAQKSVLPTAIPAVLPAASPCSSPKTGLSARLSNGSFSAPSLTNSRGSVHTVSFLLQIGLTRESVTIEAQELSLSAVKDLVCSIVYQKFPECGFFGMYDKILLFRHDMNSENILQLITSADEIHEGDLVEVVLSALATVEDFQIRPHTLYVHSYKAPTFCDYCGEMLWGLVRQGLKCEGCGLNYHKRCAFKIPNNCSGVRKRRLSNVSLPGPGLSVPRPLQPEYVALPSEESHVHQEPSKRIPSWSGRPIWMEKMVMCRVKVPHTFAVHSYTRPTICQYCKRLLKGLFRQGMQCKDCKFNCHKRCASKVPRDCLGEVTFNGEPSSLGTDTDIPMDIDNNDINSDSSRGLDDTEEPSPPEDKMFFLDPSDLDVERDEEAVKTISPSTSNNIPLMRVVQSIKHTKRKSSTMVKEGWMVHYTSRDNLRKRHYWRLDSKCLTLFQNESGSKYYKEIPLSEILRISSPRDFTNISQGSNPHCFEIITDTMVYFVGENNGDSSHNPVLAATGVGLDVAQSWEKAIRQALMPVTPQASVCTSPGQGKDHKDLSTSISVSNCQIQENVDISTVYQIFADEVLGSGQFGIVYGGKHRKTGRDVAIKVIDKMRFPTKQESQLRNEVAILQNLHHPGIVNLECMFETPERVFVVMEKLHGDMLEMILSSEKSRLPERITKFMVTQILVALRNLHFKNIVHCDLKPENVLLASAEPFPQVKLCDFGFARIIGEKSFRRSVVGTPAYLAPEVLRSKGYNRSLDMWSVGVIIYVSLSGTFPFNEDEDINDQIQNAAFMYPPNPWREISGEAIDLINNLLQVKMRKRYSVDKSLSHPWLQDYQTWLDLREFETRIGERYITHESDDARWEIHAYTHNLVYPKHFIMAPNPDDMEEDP
# Description: as §1
# [2] = range class, read-out: % inhibition
compound,measurement,setting,value
"COc1cc(NS(=O)(=O)C2CC2)ccc1-c1cnc(N)c(-c2ccc3c(c2)CCNC3=O)c1 [Compound I-50, N-(4-(6-amino-5-(1-oxo-1,2,3,4-tetrahydroisoquinolin-6-yl)pyridin-3-yl)-3-methoxyphenyl) cyclopropanesulfonamide]",inhibition at 10 µM,PHKg2; [2],0%
same,inhibition at 10 µM,PHKg2; read-out: inhibition (10 μM),-38.6%
same,inhibition at 10 µM,EphB2; [2],0%
same,inhibition at 10 µM,EphB2; read-out: inhibition (10 μM),8.2%
same,inhibition at 10 µM,LOK; [2],> 90%
same,inhibition at 10 µM,LOK; read-out: inhibition (10 μM),91.6%
same,inhibition at 10 µM,NEK1; [2],0%
same,inhibition at 10 µM,NEK1; read-out: inhibition (10 μM),16.8%
same,inhibition at 10 µM,CaMK1d; [2],0%
same,inhibition at 10 µM,CaMK1d; read-out: inhibition (10 μM),10.6%
same,inhibition (10 μM),NuaK1,61.5%
same,inhibition at 10 µM,NuaK1; [2],50 to 75%
same,inhibition at 10 µM,NuaK1; read-out: inhibition (10 μM),67.9%
same,inhibition at 10 µM,JAK1 domain2; [2],0%
same,inhibition at 10 µM,JAK1 domain2; read-out: inhibition (10 μM),-23.3%
same,inhibition at 10 µM,JAK1 domain1; [2],0%
same,inhibition at 10 µM,JAK1 domain1; read-out: inhibition (10 μM),-19.8%
same,inhibition at 10 µM,GSK3B; [2],75 to 90%
same,inhibition at 10 µM,GSK3B; read-out: inhibition (10 μM),81.1%
same,inhibition at 10 µM,IRE1; [2],0%
same,inhibition at 10 µM,IRE1; read-out: inhibition (10 μM),-8.7%
same,% inhibition,"IKKe, TBK1; 10 μM, range class",0.0%
same,inhibition (10 μM),"IKKe, TBK1",33.9%
same,inhibition at 10 µM,NEK4; [2],0%
same,inhibition at 10 µM,NEK4; read-out: inhibition (10 μM),25.1%
same,inhibition at 10 µM,NDR1; [2],0%
same,inhibition at 10 µM,NDR1; read-out: inhibition (10 μM),20.2%
same,inhibition at 10 µM,NDR2; [2],0%
same,inhibition at 10 µM,NDR2; read-out: inhibition (10 μM),4.5%
same,inhibition at 10 µM,CDK2; [2],0%
same,inhibition at 10 µM,CDK2; read-out: inhibition (10 μM),17.3%
same,inhibition at 10 µM,MAP3K5; [2],0%
same,inhibition at 10 µM,MAP3K5; read-out: inhibition (10 μM),27.5%
same,inhibition at 10 µM,LKB1; [2],0%
same,inhibition at 10 µM,LKB1; read-out: inhibition (10 μM),-1.1%
same,% inhibition,"[1]; 10 μM, range class",>90%
same,inhibition (10 μM),[1],96.3%
same,inhibition at 10 µM,IKKb; [2],0%
same,inhibition at 10 µM,IKKb; read-out: inhibition (10 μM),-26.2%
same,inhibition at 10 µM,ULK1; [2],0%
same,inhibition at 10 µM,ULK1; read-out: inhibition (10 μM),28.8%
same,inhibition at 10 µM,PIP4K2A; [2],0%
same,inhibition at 10 µM,PIP4K2A; read-out: inhibition (10 μM),-5.5%
same,% inhibition,"MST4, YSK1; 10 μM, range class",35-40%
same,inhibition (10 μM),"MST4, YSK1",35.4%
same,inhibition at 10 µM,CSK; [2],0%
same,inhibition at 10 µM,CSK; read-out: inhibition (10 μM),-4.3%
same,% inhibition,"TAO1, TAO3; 10 μM, range class",0.0%
same,inhibition (10 μM),"TAO1, TAO3",17.8%
same,inhibition at 10 µM,PIK3C3; [2],0%
same,inhibition at 10 µM,PIK3C3; read-out: inhibition (10 μM),-32.5%
same,inhibition at 10 µM,NEK3; [2],0%
same,inhibition at 10 µM,NEK3; read-out: inhibition (10 μM),-9.9%
same,inhibition at 10 µM,SNRK; [2],0%
same,inhibition at 10 µM,SNRK; read-out: inhibition (10 μM),33.2%
same,inhibition at 10 µM,RSK2 domain2; [2],0%
same,inhibition at 10 µM,RSK2 domain2; read-out: inhibition (10 μM),-1.4%
same,inhibition at 10 µM,RSK2 domain1; [2],0%
same,inhibition at 10 µM,RSK2 domain1; read-out: inhibition (10 μM),21%
same,% inhibition,"AurA, AurB, AurC; 10 μM, range class",0.0%
same,inhibition (10 μM),"AurA, AurB, AurC",17.8%
same,% inhibition,"MAP3K2, MAP3K3; 10 μM, range class",0.0%
same,inhibition (10 μM),"MAP3K2, MAP3K3",12.0%
same,inhibition at 10 µM,CK1g2; [2],75 to 90%
same,inhibition at 10 µM,CK1g2; read-out: inhibition (10 μM),79.9%
same,inhibition at 10 µM,PKD3; [2],50 to 75%
same,inhibition at 10 µM,PKD3; read-out: inhibition (10 μM),69.7%
"Nc1ncc(-c2cccc3ncsc23)cc1-c1ccc2c(c1)CCNC2=O [Compound I-13, 6-(2-amino-5-(benzo[d]thiazol-7-yl)pyridin-3-yl)-3,4-dihydroisoquinolin-1(2H)-one]",inhibition at 10 µM,PHKg2; read-out: % inhibition (range),0%
same,inhibition at 10 µM,PHKg2; read-out: inhibition (10 μM),-27.5%
same,inhibition at 10 µM,EphB2; read-out: % inhibition (range),0%
same,inhibition at 10 µM,EphB2; read-out: inhibition (10 μM),22.1%
same,inhibition at 10 µM,LOK; read-out: % inhibition (range),50 to 75%
same,inhibition at 10 µM,LOK; read-out: inhibition (10 μM),61.5%
same,inhibition at 10 µM,NEK1; read-out: % inhibition (range),0%
same,inhibition at 10 µM,NEK1; read-out: inhibition (10 μM),6.2%
same,inhibition at 10 µM,CaMK1d; read-out: % inhibition (range),0%
same,inhibition at 10 µM,CaMK1d; read-out: inhibition (10 μM),16.2%
same,% inhibition (range),NuaK1; 10 μM,50-75% and 75-90%
same,inhibition (10 μM),NuaK1,83.7%
same,inhibition at 10 µM,NuaK1; read-out: inhibition (10 μM),71.7%
same,inhibition at 10 µM,JAK1 domain2; read-out: % inhibition (range),0%
same,inhibition at 10 µM,JAK1 domain2; read-out: inhibition (10 μM),-16%
same,inhibition at 10 µM,JAK1 domain1; read-out: % inhibition (range),0%
same,inhibition at 10 µM,JAK1 domain1; read-out: inhibition (10 μM),-22.4%
same,inhibition at 10 µM,GSK3B; read-out: % inhibition (range),75 to 90%
same,inhibition at 10 µM,GSK3B; read-out: inhibition (10 μM),88.4%
same,inhibition at 10 µM,IRE1; read-out: % inhibition (range),0%
same,inhibition at 10 µM,IRE1; read-out: inhibition (10 μM),-17%
same,% inhibition (range),"IKKe, TBK1; 10 μM",0.0%
same,inhibition (10 μM),"IKKe, TBK1",−9.9%
same,inhibition at 10 µM,NEK4; read-out: % inhibition (range),0%
same,inhibition at 10 µM,NEK4; read-out: inhibition (10 μM),4.7%
same,inhibition at 10 µM,NDR1; read-out: % inhibition (range),0%
same,inhibition at 10 µM,NDR1; read-out: inhibition (10 μM),13%
same,inhibition at 10 µM,NDR2; read-out: % inhibition (range),0%
same,inhibition at 10 µM,NDR2; read-out: inhibition (10 μM),4%
same,inhibition at 10 µM,CDK2; read-out: % inhibition (range),0%
same,inhibition at 10 µM,CDK2; read-out: inhibition (10 μM),33.3%
same,inhibition at 10 µM,MAP3K5; read-out: % inhibition (range),0%
same,inhibition at 10 µM,MAP3K5; read-out: inhibition (10 μM),25.6%
same,inhibition at 10 µM,LKB1; read-out: % inhibition (range),0%
same,inhibition at 10 µM,LKB1; read-out: inhibition (10 μM),4.3%
same,% inhibition (range),[1]; 10 μM,>90%
same,inhibition (10 μM),[1],97.0%
same,inhibition at 10 µM,IKKb; read-out: % inhibition (range),0%
same,inhibition at 10 µM,IKKb; read-out: inhibition (10 μM),-3.3%
same,inhibition at 10 µM,ULK1; read-out: % inhibition (range),0%
same,inhibition at 10 µM,ULK1; read-out: inhibition (10 μM),-23.4%
same,inhibition at 10 µM,PIP4K2A; read-out: % inhibition (range),0%
same,inhibition at 10 µM,PIP4K2A; read-out: inhibition (10 μM),2.3%
same,% inhibition (range),"MST4, YSK1; 10 μM",0.0%
same,inhibition (10 μM),"MST4, YSK1",−17.0%
same,inhibition at 10 µM,CSK; read-out: % inhibition (range),0%
same,inhibition at 10 µM,CSK; read-out: inhibition (10 μM),4.7%
same,% inhibition (range),"TAO1, TAO3; 10 μM",0.0%
same,inhibition (10 μM),"TAO1, TAO3",10.3%
same,inhibition at 10 µM,PIK3C3; read-out: % inhibition (range),0%
same,inhibition at 10 µM,PIK3C3; read-out: inhibition (10 μM),24.8%
same,inhibition at 10 µM,NEK3; read-out: % inhibition (range),0%
same,inhibition at 10 µM,NEK3; read-out: inhibition (10 μM),5.3%
same,inhibition at 10 µM,SNRK; read-out: % inhibition (range),0%
same,inhibition at 10 µM,SNRK; read-out: inhibition (10 μM),6.2%
same,inhibition at 10 µM,RSK2 domain2; read-out: % inhibition (range),0%
same,inhibition at 10 µM,RSK2 domain2; read-out: inhibition (10 μM),3.8%
same,inhibition at 10 µM,RSK2 domain1; read-out: % inhibition (range),0%
same,inhibition at 10 µM,RSK2 domain1; read-out: inhibition (10 μM),19.2%
same,% inhibition (range),"AurA, AurB, AurC; 10 μM",0.0%
same,inhibition (10 μM),"AurA, AurB, AurC",17.7%
same,% inhibition (range),"MAP3K2, MAP3K3; 10 μM",0.0%
same,inhibition (10 μM),"MAP3K2, MAP3K3",0.2%
same,inhibition at 10 µM,CK1g2; read-out: % inhibition (range),> 90%
same,inhibition at 10 µM,CK1g2; read-out: inhibition (10 μM),> 90%
same,inhibition at 10 µM,PKD3; read-out: % inhibition (range),50 to 75%
same,inhibition at 10 µM,PKD3; read-out: inhibition (10 μM),69.4%
